These results are taken from paper PMC9738107, “Targeting of the ELR+CXCL/CXCR1/2 Pathway Is a Relevant Strategy for the Treatment of Paediatric Medulloblastomas” (Cells, 2022).

The structures appear in SMILES notation.

The subject of data set [1] is ERK phosphorylation in Daoy cells. In words: Immunoblotting of p-ERK/p-AKT. The data set is classed as cell-based, human. The following applies: 1 or 2.5 µM, 2 h. The protocol: (§1) Figure 5 C29 inhibits signalling pathway that stimulates in cell proliferation and survival. (A–C). Daoy (A), HD-MB03 (B), and ONS-76 (C) cells were treated with C29 (1 or 2.5 μM) for 2 h (A–C) or 24 h (C), n = 3. The expression of p- ERK and p-AKT, relative to ERK and AKT, (respectively) was used to describe the relative activation of the pathways. ARD1 and HSP90 were used as loading controls. Statistics were performed using Student t-test for two comparisons only or ANOVA test for multiple comparisons. * p < 0.05, ** p < 0.01. […]
(§2) Protein extraction and immunoblotting
(§3) Cells were cultured to sub confluency and lysed in 60 mM Tris‐Cl pH 6∙8, 2% SDS, 10% glycerol, 5% β‐mercapto‐ethanol, 0∙01% bromophenol blue).
(§4) Lysates were sonicated for 25 seconds, and protein amount was determined by the Pierce™ BCA Protein Assay Kit assay (Thermo Fisher). Sample proteins were reduced by heating at 95 °C for 5 min. 30 μg of proteins were separated on 10% SDS‐polyacrylamide gels and transferred on PVDF membranes in Tris‐Glycine buffer (25 mM Tris, 192 mM glycine, pH 8∙3) + 20% ethanol (v:v). Membranes were blocked with 3% BSA, at room tem‐ perature for 1 h, then immunoblotted overnight with primary antibodies diluted in 3% BSA, at 4 °C. The following primary antibodies were used: AKT (CST, #9272S), phospho‐ […]
(§5) ARD1 (homemade polyclonal rabbit antibody). Membranes were incubated with HRP‐ conjugated secondary antibodies anti‐rabbit IgG 1/5000e (Promega), at room temperature, for 1h30. After washing, the Advansta WesternBright Quantum HRP substrate (Diagom‐ ics, Blagnac, France) was used as detection reagent.
Background: In western blotting, separated proteins are transferred to a membrane and probed.

In data set [2] the test system is ERK and AKT phosphorylation in ONS-76 cells. Kind of data set: Immunoblotting of p-ERK/p-AKT. The following applies: ONS-76, 1 or 2.5 µM, 2 h or 24 h. Type of data set: cell-based, human. The protocol: as §1, §2, §3, §4, §5
The subject of data set [3] is ERK phosphorylation in HD-MB03 cells. Kind of data set: Immunoblotting of p-ERK/p-AKT. The data set is classed as cell-based, human. The settings on record: HD-MB03, 1 or 2.5 µM, 2 h. The protocol: as §1, §2, §3, §4, §5
Another data set has as its system ONS-76 cells. In words: XTT assay (cell metabolism/cytotoxicity). The data set is classed as cell-based, human. The settings on record: for IC50: Homo sapiens. From the text: (§6) To evaluate the efficacy of this compound in MB cells, we first determined the relative IC50 values for each cell line using XTT assays (Figure 3A–E). The XTT assay is used to measure cellular metabolic activity (overall activity of mitochondrial dehydrogenases) as an indicator of cell viability, proliferation, and cytotoxicity. […] Overall, IC50 values for all cell lines were in the micromolar range, making C29 a very efficient agent to inhibit cell metabolism and viability.
(§7) Figure 3 A new pharmacological inhibitor of CXCR1/2, C29, inhibits the metabolism of MB cells. (A–D). Cytotoxic effect induced by C29 on Daoy (A), ONS-76 (B), HD-MB03 (C), and D341Med (D) cells. Cells were treated with increasing doses of the inhibitor for 24, 48, and 72 h. Cytotoxicity was measured using the XTT assay. Absorbance measurements were performed at […], n = 3. (E) Table with the different IC50 values for all conditions. (F) Cell death after 48 h of treatment with control (DMSO, CT) or C29 1, 2.5 or 5 µM treatment, on MB cells, and normal cells (N), n = 3. Statistics were performed using the one-way method ANOVA. ** p < 0.01, *** p < 0.001. For this figure, Daoy = Da, ONS-76 = O, HD-MB03 = HD, D341 = D3, C8D1A = C8. TEXT PRINTED IN THE PICTURE: (E) C29: IC50 (μM): 5.6 (Cell line: Daoy; 24h); IC50 (μM): 3 (Cell line: Daoy; 48h); IC50 (μM): 0.9 (Cell line: Daoy; 72h); IC50 (μM): 17.9 (Cell line: ONS-76; 24h); IC50 (μM): 6.8 (Cell line: ONS-76; 48h); IC50 (μM): 2.1 (Cell line: ONS-76; 72h); IC50 (μM): 2.6 (Cell line: HD-MB03; 24h); IC50 (μM): 1.8 (Cell line: HD-MB03; 48h); IC50 (μM): 1.3 (Cell line: HD-MB03; 72h); IC50 (μM): 7.5 (Cell line: D341Med; 24h); IC50 (μM): 4.9 (Cell line: D341Med; 48h); IC50 (μM): 4.6 (Cell line: D341Med; 72h)
(§8) centrations of C29 in 96‐well plates for 48h. 50μl/well of XTT solution (Cell Proliferation
(§9) kit II, Sigma‐Aldrich) were added to measure cell metabolism at 490 nm with GloMax‐ […]
(§10) 30 μg of proteins were separated on 10% SDS‐polyacrylamide
(§11) gels and transferred on PVDF membranes in Tris‐Glycine buffer (25 mM Tris, 192 mM
(§12) glycine, pH 8∙3) + 20% ethanol (v:v). Membranes were blocked with 3% BSA, at room tem‐
(§13) perature for 1 h, then immunoblotted overnight with primary antibodies diluted in 3%
(§14) BSA, at 4 °C. The following primary antibodies were used: AKT (CST, #9272S), phospho‐
(§15) ARD1 (homemade polyclonal rabbit antibody). Membranes were incubated with HRP‐
(§16) conjugated secondary antibodies anti‐rabbit IgG 1/5000e (Promega), at room temperature,
(§17) for 1h30. After washing, the Advansta WesternBright Quantum HRP substrate (Diagom‐
(§18) ics, Blagnac, France) was used as detection reagent.

Another data set concerns Daoy cells. Kind of data set: XTT assay (cell metabolism/cytotoxicity). The following applies: for IC50: Homo sapiens, Daoy. The data set is classed as cell-based, human.
From the text: as §6, §7, §8, §9, §10, §11, §12, §13, §14, §15, §16, §17, §18
(In general: Tetrazolium assays rely on reduction of a dye to a coloured formazan, in cell work by metabolically active cells.)

The next data set concerns D341Med cells. In words: XTT assay (cell metabolism/cytotoxicity). The settings on record: for IC50: Homo sapiens, D341 Med. The data set is classed as cell-based, human.
From the text: as §6, §7, §8, §9, §10, §11, §12, §13, §14, §15, §16, §17, §18

In another data set the test system is HD-MB03 cells. In words: XTT assay (cell metabolism/cytotoxicity). The settings on record: for IC50: Homo sapiens. Type of data set: cell-based, human.
From the text: as §6, §7, §8, §9, §10, §11, §12, §13, §14, §15, §16, §17, §18

The next data set can be described thus: Lipophilicity (log D). The data set is classed as physicochemical. The settings on record: source not stated.

As for `O=C(Nc1cccc(Cl)c1)Nc1nc2ccc([N+](=O)[O-])cc2s1` [C29, 1-(3-chlorophenyl)-3-(6-nitrobenzo[d]thiazol-2-yl) urea], the ERK phosphorylation entry in data set [1] was “inhibited ERK phosphorylation”; in data set [2], “inhibited”; in data set [3] it was “inhibited ERK phosphorylation”. Besides, the AKT phosphorylation result in data set [2] was “inhibited”. The IC50 with ONS-76 cells (ONS-76, 24 h) was found to be 17.9 µM; in the data set on ONS-76 cells (ONS-76, 48 h) it was 6.8 µM; with ONS-76 cells (ONS-76, 72 h) it was 2.1 µM; in the data set with Daoy cells (24 h) it was 5.6 µM; with Daoy cells (48 h), 3 µM; in the data set on Daoy cells (72 h), 0.9 µM. The IC50 in the data set on D341Med cells (D341Med, 24 h) is 7.5 µM; with D341Med cells (D341Med, 48 h), 4.9 µM; in the data set on D341Med cells (D341Med, 72 h), 4.6 µM; in the data set with HD-MB03 cells (HD-MB03, 24 h), 2.6 µM; with HD-MB03 cells (HD-MB03, 48 h), 1.8 µM; with HD-MB03 cells (HD-MB03, 72 h), 1.3 µM. Moreover, the “Selectivity index (SI)” value is 2.84 in the data set with ONS-76 cells (IC50 normal cells (C8D1A) / IC50 ONS-76), 6.44 in the data set on Daoy cells (IC50 normal cells (C8D1A) / IC50 Daoy), 3.94 with D341Med cells (IC50 normal cells (C8D1A) / IC50 D341Med) and 10.7 with HD-MB03 cells (IC50 normal cells (C8D1A) / IC50 HD-MB03). Moreover, the “Effect on cell metabolism at low concentrations” value with D341Med cells (D341Med, 72 h, 0.1 to 2.5 µM) is “stimulated metabolism”. The logD in the data set “Lipophilicity (log D)” is around 3.

For orientation: IC50 means the concentration needed to halve the response being measured. A low value points to inhibition by little substance. As usually defined, the logD is the decadic logarithm of the distribution of all forms, ionised or not, between an organic phase and buffer at a given pH. Higher therefore signals a more lipophilic compound.
